Experimental data taken from patent US20180172669A1, “SCREENING AND USE OF PIPERIDINO PYRAZOLOPYRIMIDINE COMPOUND” (Institute of Basic Medical Sciences, Chinese Academy of …, priority 2015, published 2018).

How the values were obtained:
MCT-PAH rats = experiment: Monocrotaline induced PAH rat model (MCT-PAH); format: in vivo, Sprague-Dawley rats; settings: 4.5 mg/kg intragastric gavage, three weeks after MCT
Protocol: In vivo experiments with MCT-PAH rats: Monocrotaline (MCT, 55 mg/kg) or saline were administrated subcutaneously in single dose to male Sprague-Dawley rats (supplied by Nation Institutes for Food and Medicament Control). Three weeks after the injection of MCT, 4.5 mg/kg of piperidino pyrazolopyrimidine compound (A), saline or positive control (Sildenafil) were administrated respectively to the rats by intragastric gavage. Two weeks after the administration, the right ventricular systolic pressure (RVSP) was measured and the survival rate was calculated with the data of RVSP recorded in BL-420E system (FIG. 13).

[1] = system: Id1 promoter driven Venus-Luci dual reporter gene in ID1-V-LUC hES; experiment: ID1-V-LUC hES luciferase assay with compound (Example 4); format: cell-based, human; settings: 18-24 h
Protocol: ID1-V-LUC hES were seeded in a 96-well plate and were grown to 80% confluency. The old medium was removed and the cells were washed with PBS, then mTeSR medium of human embryonic stem cell (Biowish.Co.,Ltd.) was added. The cells were starved for 6 hours prior to incubating with the compound: 1H-Pyrazolo[3,4-d]pyrimidine, 1-phenyl-4-(1-piperidinyl)- (Cas No :23000-46-6). The compound was serially diluted to 5, 2.5, 1.25, 0.625, 0.3 μg/mL in above-mentioned medium, and sequentially added in the 96-well plate in which the stem cells of the model were seeded. Triplicate replicates were used for each concentration. At the same time, the well in which the medium containing 0.1% DMSO was added as blank control. After the incubation of 18-24 h at 37° C. (5% CO2), the cells were lysed with cell lysis buffer CCLR (Promega), and the luciferase activity were detected using the method according to the instruction of the detection system of reporter gene, Luciferase Assay System (Promega).
The activity of luciferase resulting from the stimulation of the compounds at different concentrations was calculated using the following formula:
Regulation rate=Luciferase activity of compound-treated cells/Luciferase activity of DMSO-treated cells×100%

phosphodiesterase = experiment: Inhibitory effect on phosphodiesterase; format: biochemical
endothelial cells = experiment: Angiogenesis of endothelial cells on Matrigel; format: cell-based; settings: 2-8 hours; for ability of angiogenesis compared with control: ECs on Matrigel
Protocol: The endothelial cells were grown in complete culture medium (1% FBS in SFM) to confluency. One day before the experiment of angiogenesis, the medium was replaced by 0.2% FBS SFM to starve the cells for 16 hours. One the day before the experiment, Matrigel (Corning, 10 mg/ml) was put on ice overnight for thawing, and on the day of experiment, Matrigel was added in the wells of the pre-chilled 96-well plate (50 μl per well) and was distributed evenly in the wells. Then the plate was put in the incubator and incubated at 37 □ for 30 mins. Afterwards, the medium for starvation was removed and the cells were washed twice with DPBS, then Accutase enzyme was added to digest the cells for 1 minute. Later on, the SFM medium for starvation was added to resuspend the cells, and the cells were gently pipetted to form single cell suspension and centrifuged in room temperature at 1000 rpm for 4 mins. The cells were resuspended in SFM medium for starvation and counted. Then, the cells were seeded in 1×10^4 cells per well, and were gently shook to distributed evenly before putting in the incubator at 37 □. The angiogenesis was observed within 2-8 hours.

[2] = system: Id1 promoter driven Venus-Luci dual reporter gene in ID1-V-LUC hES; experiment: ID1-V-LUC hES differentiated cells stimulated with BMP4, luciferase activity; format: cell-based, human; settings: after 4 hours of stimulation with 6.25 ng/mL of BMP4, differentiated cells
Protocol: Id1-Venus-Luc-MC1-DTA plasmid was linearized with AsiSI, and then the resulting plasmid was electroporated into human embryonic stem cells (H9) of P57 (a commercially available human embryonic stem cells which could be passage to expand). At 37° C., CO2 5%, the cells were cultured on the DR4 MEF-feeder-cells (APPLIEDSTEMCELL, Inc., U.S.) with the medium containing serum replacement, and the medium was replaced by fresh medium daily. BioRad electroporation machine (ZAP: 250 V, uF 500, TC 8.6) was used for electroporation, then 19 clones were screened out using puromycin, and the clones with green fluorescence were picked out (the cells containing MC1-DTA plasmid cannot survive). The consistency between fluorescent activity and expression of endogenous Id gene was measured (FIG. 8).
The luciferase activity increased over time (0, 1, 2 and 5 hours) after the stimulation with of BMP4. The effect of external stimulus on the expression of Id gene can be reflected maximally by expression level of luciferase. Therefore, clone 2 (named as ID1-V-LUC hES) was selected and was used to carry out the secondary screening for the compounds (FIG. 9). ID1-V-LUC hES was differentiated toward early mesoderm, also the vascular cell with smooth muscle cell markers (α SMA, Calponin) were obtained. […]

c1ccc(-n2ncc3c(N4CCCCC4)ncnc32)cc1 [piperidino pyrazolopyrimidine compound, 1H-Pyrazolo[3,4-d]pyrimidine,1-phenyl-4-(1-piperidinyl)-]
pulmonary arterial pressure (right ventricular systolic pressure, RVSP) of MCT-PAH rats (MCT-PAH rats; measured two weeks after the administration): decreased significantly | survival rate of the rats with MCT-PAH (MCT-PAH rats; two weeks after the administration): increased obviously | expression level of luciferase of the stem cells of the model ([1]; 5, 2.5, 1.25, 0.625, 0.3 μg/mL): up-regulated | peak expression level of luciferase (regulation rate) ([1]; concentration of the compound 2.5 μg/mL, vs DMSO): 3.31 fold | inhibitory effect on phosphodiesterase (phosphodiesterase): weak inhibitory effect | ability of angiogenesis relative to VEGF treated ECs (endothelial cells; 1 μM): comparable | ability of angiogenesis compared with control (endothelial cells; 1 μM): significantly increased | ability of angiogenesis relative to VEGF treated ECs (endothelial cells; 5 μM): comparable | ability of angiogenesis compared with control (endothelial cells; 5 μM): significantly increased

B1: BMP4: BMP ligand (Peprotech) used to stimulate ID1-V-LUC hES cells (protein, UniProt P12644 293-408, looked up)
Bone morphogenetic protein 4: SPKHHSQRARKKNKNCRRHSLYVDFSDVGWNDWIVAPPGYQAFYCHGDCPFPLADHLNSTNHAIVQTLVNSVNSSIPKACCVPTELSAISMLYLDEYDKVVLKNYQEMVVEGCGCR
regulation rate of ID1-V-LUC [2]: 7.5 fold
